# Where two headings read alike, the source gives them in different places.
# Experiments:
# Format in all cases: cell-based
# mouse mGluR7 = molecular target: T1, mouse mGluR7 (Mus musculus, UniProt Q68ED2); experiment: cAMP reporter gene assay in CHO-CRE-luc cells stably expressing mouse mGluR7
# T1 construct: expressed in transfected cells
# Procedure: (§1) Compound activities were determined in CHO-CRE-luc cells stably expressing hu/mo mGluR7, using a cAMP reporter gene assay (Steady Glo, Promega). Selectivity was assessed in stable CHO-mGluR4 cells (DiscoverX) and CHO-mGluR8 transients using an HTRF cAMP assay (Cisbio).
# (§2) The activation of mGluR7 was measured by the decreased forskolin stimulated luminescence signal. […] Forskolin stimulated luminescence signal was not reduced for mGluR4 and mGluR8.
# mGluR4 = mGluR4 (Homo sapiens, UniProt Q14833); experiment: Selectivity HTRF cAMP assay in stable CHO-mGluR4 cells
# mGluR4, sequence (Q14833 33-912): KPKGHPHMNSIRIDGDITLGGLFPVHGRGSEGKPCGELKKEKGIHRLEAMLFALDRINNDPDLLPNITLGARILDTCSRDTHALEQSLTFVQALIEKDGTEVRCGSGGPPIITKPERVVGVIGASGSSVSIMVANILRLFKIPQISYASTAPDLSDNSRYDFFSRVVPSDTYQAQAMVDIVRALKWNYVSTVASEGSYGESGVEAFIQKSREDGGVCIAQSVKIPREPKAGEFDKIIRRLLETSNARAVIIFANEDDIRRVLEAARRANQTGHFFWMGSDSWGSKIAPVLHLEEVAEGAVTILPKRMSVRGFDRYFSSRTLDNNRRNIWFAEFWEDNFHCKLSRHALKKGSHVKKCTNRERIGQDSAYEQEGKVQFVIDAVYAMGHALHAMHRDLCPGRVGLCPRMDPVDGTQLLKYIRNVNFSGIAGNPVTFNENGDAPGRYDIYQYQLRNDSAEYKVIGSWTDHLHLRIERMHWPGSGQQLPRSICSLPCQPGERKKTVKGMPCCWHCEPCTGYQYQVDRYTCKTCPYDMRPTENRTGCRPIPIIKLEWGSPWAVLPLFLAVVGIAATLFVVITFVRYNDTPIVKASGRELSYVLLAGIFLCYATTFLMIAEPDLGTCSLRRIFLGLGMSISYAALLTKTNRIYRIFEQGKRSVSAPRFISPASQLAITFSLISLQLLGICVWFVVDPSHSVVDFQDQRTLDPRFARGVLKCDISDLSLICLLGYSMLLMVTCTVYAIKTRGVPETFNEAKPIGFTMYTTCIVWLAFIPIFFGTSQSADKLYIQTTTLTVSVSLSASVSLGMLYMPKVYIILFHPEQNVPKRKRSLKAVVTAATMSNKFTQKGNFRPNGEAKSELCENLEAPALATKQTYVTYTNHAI
# Procedure: as §1, §2
# mGluR8 = molecular target: T2, mGluR8 (Homo sapiens, UniProt O00222); experiment: Selectivity HTRF cAMP assay in CHO-mGluR8 transients
# T2 construct: expressed in transfected cells; host or cells: CHO (transient transfection)
# T2 sequence (O00222 34-908, species assumed): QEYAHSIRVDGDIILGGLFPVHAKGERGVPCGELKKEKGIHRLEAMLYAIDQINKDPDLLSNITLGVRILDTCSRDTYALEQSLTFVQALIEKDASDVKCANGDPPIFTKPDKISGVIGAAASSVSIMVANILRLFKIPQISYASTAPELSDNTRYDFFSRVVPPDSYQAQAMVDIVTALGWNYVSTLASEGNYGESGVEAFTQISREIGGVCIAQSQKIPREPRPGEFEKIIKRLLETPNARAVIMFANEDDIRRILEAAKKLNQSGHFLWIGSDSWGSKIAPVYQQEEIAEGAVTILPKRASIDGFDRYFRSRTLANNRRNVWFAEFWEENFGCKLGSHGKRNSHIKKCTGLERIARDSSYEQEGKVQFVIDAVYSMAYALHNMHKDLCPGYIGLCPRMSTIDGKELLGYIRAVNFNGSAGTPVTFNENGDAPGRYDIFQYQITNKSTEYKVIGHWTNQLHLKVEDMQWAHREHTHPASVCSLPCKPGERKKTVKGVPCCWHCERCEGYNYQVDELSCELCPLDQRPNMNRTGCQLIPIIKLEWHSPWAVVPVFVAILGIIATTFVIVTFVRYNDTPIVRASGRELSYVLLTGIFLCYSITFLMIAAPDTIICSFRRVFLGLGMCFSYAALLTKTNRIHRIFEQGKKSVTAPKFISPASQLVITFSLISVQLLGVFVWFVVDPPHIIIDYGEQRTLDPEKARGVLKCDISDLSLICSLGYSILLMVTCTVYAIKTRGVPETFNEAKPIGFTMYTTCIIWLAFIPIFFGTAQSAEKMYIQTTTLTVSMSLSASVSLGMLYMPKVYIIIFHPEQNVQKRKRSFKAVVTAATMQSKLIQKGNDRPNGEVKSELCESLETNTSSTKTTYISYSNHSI
# Procedure: as §1, §2
# mGluR7 [1] = molecular target: T3, mGluR7 (Homo sapiens, UniProt Q14831); experiment: Kinetic impedance assay (desensitization) in stable CHO-mGluR7 cells, response to tool activator CPD A after pre-treatment; details: pre-treatment, FIG. 1B
# T3 sequence (Q14831 35-915): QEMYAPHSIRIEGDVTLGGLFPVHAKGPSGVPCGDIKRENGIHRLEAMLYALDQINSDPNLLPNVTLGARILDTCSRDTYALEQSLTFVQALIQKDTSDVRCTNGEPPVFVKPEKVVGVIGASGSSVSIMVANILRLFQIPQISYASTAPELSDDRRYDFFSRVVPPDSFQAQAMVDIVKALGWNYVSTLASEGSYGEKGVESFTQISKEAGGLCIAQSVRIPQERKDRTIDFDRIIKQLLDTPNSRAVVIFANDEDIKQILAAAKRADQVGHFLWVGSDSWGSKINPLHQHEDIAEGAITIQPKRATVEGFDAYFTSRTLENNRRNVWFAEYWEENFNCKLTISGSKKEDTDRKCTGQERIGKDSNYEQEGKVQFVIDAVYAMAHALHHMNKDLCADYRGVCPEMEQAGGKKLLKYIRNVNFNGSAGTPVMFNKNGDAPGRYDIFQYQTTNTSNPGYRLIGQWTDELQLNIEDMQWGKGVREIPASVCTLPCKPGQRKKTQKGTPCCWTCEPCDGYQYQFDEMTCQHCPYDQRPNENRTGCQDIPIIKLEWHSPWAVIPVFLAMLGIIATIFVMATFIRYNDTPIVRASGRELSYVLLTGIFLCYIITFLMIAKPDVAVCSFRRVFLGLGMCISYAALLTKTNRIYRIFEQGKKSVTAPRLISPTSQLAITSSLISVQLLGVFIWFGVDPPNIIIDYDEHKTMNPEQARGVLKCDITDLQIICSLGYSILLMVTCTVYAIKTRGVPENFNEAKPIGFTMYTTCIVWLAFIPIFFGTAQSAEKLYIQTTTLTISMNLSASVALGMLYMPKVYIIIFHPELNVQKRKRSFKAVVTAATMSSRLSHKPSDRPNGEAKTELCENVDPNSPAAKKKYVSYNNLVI
# Procedure: Stable CHO-mGluR7 cells (DiscoverX) were pre-incubated with compounds (EC80, 1 h), washed and after 30 min, impedance changes upon addition of a tool mGluR7 activator (CPD A) were determined (Cellkey, Molecular Devices).
# [2] = test system: mouse cortical synaptosomes; experiment: Glutamate release assay in mouse cortical synaptosomes
# Procedure: Stimulus induced glutamate release from mouse cortical synaptosomes was monitored using a fluorescence based glutamate dehydrogenase assay. Compounds were incubated for 1 or 10 min for the inhibition or potentiation modes respectively.
# [3] = test system: CA1 pyramidal cells in mouse hippocampal slices (SC-CA1 pathway); experiment: Electrophysiology: intracellular EPSC recordings from CA1 pyramidal cells in mouse hippocampal slices
# Procedure: FIG. 3A is a graph showing the results of a glutamate release assay for CPD1 in mouse synaptosomes. FIG. 3B is a graph showing the results of a glutamate release potentiation assay. FIG. 3C and FIG. 3D provide graphs of electrophysiological recordings from the SC-CA1 pathway in mouse hippocampal slices. FIG. 3C is a graph comparing the changes in intracellular recordings of excitatory postsynaptic currents (EPSCs) as a result of contact with L-AP4 at a concentration of 0.5 mM, CPD 1 at a concentration of 1 μM, and CPD 1 at a concentration of 5 μM. FIG. 3D is a graph comparing the changes in intracellular recordings of EPSCs in mice with wild-type (WT) mGluR7 and mice with an mGluR7 knock-out contacted with CPD 1 at a concentration of 5 μM.
# Intracellular recordings were made from CA1 pyramidal cells following SC stimulation in mouse hippocampal slices. Compounds were applied to the slices for 10 min, with recordings made over a 45 minutes period. mGluR7 KO mice were obtained from the Toronto Centre for Phenogenomics.
# mGluR7 [4] = molecular target: T3, mGluR7; experiment: cAMP CRE-luciferase reporter gene assay (Steady Glo) in CHO-CRE-luc cells stably expressing human mGluR7; parameters: expressed in transfected cells
# Procedure: as §1
# The ability of the test compounds to activate mGluR7 was determined by their ability to reduce forskolin stimulated cAMP production. Compounds were assessed in a CRE-directed luciferase reporter gene assay, using a stable CHO cell line expressing the CRE-luc reporter and human mGluR7 genes. In this cell line, production of cAMP stimulated the transcription of the luciferase gene and luciferase activity was then measured in a luminescent enzyme assay (Steady Glo assay; Promega E2550). Activation of mGluR7 decreased the forskolin stimulated luminescence signal.
# The day prior to the assay, compounds were serially diluted in DMSO (100× final assay concentration (FAC)), in 384-well plates which were then stored in the dark at room temperature (RT) until use. Cells were seeded at 12.5 k/well in white, clear bottom 384-well plates (Corning 3707) and left for one hour at RT followed by an overnight incubation (37° C.). The following day, the DMSO compound plate was diluted 1:20 (5×FAC) in Opti-MEM I (Life Technologies 11058021). The growth media was removed from the cell plate and replaced with 15 μl Opti-MEM I, followed by a 5 μl addition from the 5× compound plate and a fifteen minute incubation (37° C.). Forskolin (Sigma F3917) was then added to the wells (5 μl of 2.5 μM) and the plate was incubated for five hours (37° C.). During this incubation, the Steady Glo Substrate reagent was warmed to 37° C. Aliquots (11 ml; stored at −20° C.) of this reagent were prepared by dissolving the contents of 1 vial of lyophilised substrate in 100 ml Steady-Glo buffer. A 25 μl addition of the substrate was made to all wells and the plate was incubated for thirty minutes at RT, on a plate shaker (300 rpm; in the dark). Luminescence was then measured using the EnVision Multilabel Reader (Perkin Elmer).
# Compound activity was examined using a 10-point, half log concentration-response range and each concentration was tested in duplicate wells. Luminescence values were normalised to ‘maximum’ (forskolin alone) and ‘minimum’ (forskolin in the presence of tool mGluR7 agonist) controls.
# mGluR7 [5] = molecular target: T3, mGluR7; experiment: Mode of action: cAMP assay in CHO-CRE-luc human mGluR7 cells in presence of orthosteric antagonist LY341495; parameters: expressed in transfected cells; details: FIG. 2C, 2D
# Procedure: FIGS. 2A-2D are graphs of the results from in vitro cAMP assays in CHO-CRE-luc cells stably expressing human mGluR7 to determine the mode of action of CPD1. FIG. 2A provides the compound activity of non-selective agonist, L-AP4, with increasing concentrations of orthosteric antagonist, LY341495 (LY). FIG. 2B provides the compound activity of a positive allosteric modulator (PAM) compound, VU0422288, for the same concentrations of LY as shown in FIG. 2A.
# as §1
# The mode of action of the compound in Example 16 was determined by testing activity in the presence of the orthosteric antagonist LY341495 (LY).
# T1 sequence (Q68ED2 35-915): as the sequence (Q14831 35-915) above, with S454T, A486P, D544N counted along it
structure (smiles),measurement,setting,value
"C[C@H](C(=O)NC1COc2ccccc2C1S(C)(=O)=O)c1ccc(F)cc1 (single isomer, unassigned) [Example 16]","agonist activity at mGluR7, mouse samples (in words)",mouse mGluR7; FIG. 1A,full agonist
same,EC50,"mouse mGluR7; mean ± standard deviation, n=2",1.8 ± 3.5 nM
same,Emax mGluR7 (mouse),"mouse mGluR7; mean ± standard deviation, n=2",100 ± 0.1 % control
same,activity at mGluR4 (in words),mGluR4; FIG. 1A,no activity
same,EC50 mGluR4,mGluR4; tested ≤10 μM,inactive
same,Emax mGluR4,mGluR4; tested ≤10 μM,inactive
same,activity at mGluR8 (in words),mGluR8; FIG. 1A,no activity
same,EC50 mGluR8,mGluR8; tested ≤10 μM,inactive
same,Emax mGluR8,mGluR8; tested ≤10 μM,inactive
same,effect of pre-treatment on response to CPD A (in words),mGluR7 [1],did not alter
same,EC50,"[2]; Mus musculus, 1 min, short incubation (1 minute), FIG. 3A, read-out: EC50 of reduction of glutamate release",34 nM
same,enhancement of glutamate release,"[2]; longer exposure (10 minutes), FIG. 3B",92%
same,reduction of glutamate release,"[2]; short incubation (1 minute), FIG. 3A",30%
same,activity on EPSCs in slices from mGluR7 KO mice (in words),"[3]; mGluR7 KO mice, 5 μM, FIG. 3D",inactive
same,effect on excitatory postsynaptic currents (EPSCs) amplitude (in words),"[3]; wild-type mouse hippocampal slices, FIG. 3C",bimodal effect
same,"agonist activity at mGluR7, human samples (in words)",mGluR7 [4]; FIG. 1A,full agonist
same,Emax mGluR7 (human),"mGluR7 [4]; mean ± standard deviation, n=2",100 ± 1.8 % control
same,EC50,"mGluR7 [4]; mean ± standard deviation, n=2, read-out: EC50 mGluR7 (human)",6.9 ± 0.8 nM
same,EC50,"mGluR7 [4]; reduction of forskolin stimulated cAMP (luminescence), CHO CRE-luc human mGluR7, read-out: EC50",7 nM
same,effect of increasing LY341495 concentrations on compound activity (in words),mGluR7 [5],unaffected

# Reference: patent US11465994B2, “MGluR7 agonist compounds for treating mGluR7-regulated diseases, disorders, or conditions” (Takeda Pharmaceutical Company Limited, priority 2016, dated 2022)
